Data as given in patent US10627412B2, “Periodontal-disease-specific peptide, and treatment and diagnosis of periodontal disease using same” (KAGOSHIMA UNIVERSITY, priority 2010, dated 2020).

How the values were obtained:
rats = assay: Intragingival injection to the lower left jaw of rats; assay type: in vivo, rat; details: for tumentia of lower jaw lymph node (Lt): injected left side, intragingival injection; for alveolar bone destruction: lower jaw of injected rats
Procedure: (§1) PBS, full-length human Keratin 6 (FLK6) or peptide 1 (K6F) was administered by intragingival injection to the lower left jaw of rats. […] The lymphocytes obtained from these rats were stimulated with FLK6 or K6F and cultured. […] In addition, peripheral blood mononuclear leukocytes were obtained from these rats, stimulated with K6F or scramble peptide (Sc), and expression of RANKL and CD3 were examined by FACS analysis. […] Moreover, alveolar bone destruction in these rats was examined.

gingiva fibroblast (GF) = assay: Binding of FITC-labeled peptide to various cells, confocal microscope; details: gingiva fibroblast compared to other cells
Description: Various cells were stimulated with FITC-labeled peptide 1 (K6F, P-1), observed under a confocal microscope, and the binding level to K6F was shown by percentage higher than that of the control cell (FIG. 14).

[1] = test system: T cells obtained from peripheral blood of the periodontal disease patients; assay: Pit formation assay on dentin section; assay type: cell-based, human; details: stimulation
[2] = test system: RANKL mRNA in lymphocytes; assay: RT-PCR of RANKL mRNA in lymphocytes of periodontitis patients; assay type: cell-based, human; details: stimulation of lymphocytes of periodontitis patients
[3] = test system: ERK and Akt in gingival epithelial cell (GEC); assay: Activation of serine/threonine kinases in stimulated gingival epithelial cell; assay type: cell-based; details: stimulation 15 min-2 hr
Procedure: (§2) Gingiva fibroblasts were stimulated with peptide 1 (K6F), recombinant Keratin 6 (RK6, Rec-K6) or scramble peptide (Sc) for 2-24 hr, and the expression levels of MMP-2, MMP-3, MCP-1, IL-6, IL-8 were measured by Western blot analysis. […] Then, gingiva fibroblast (GF) and gingival epithelial cell (GEC) were stimulated with peptide 1 (K6F) or scramble peptide (Sc), respectively, for 15 min-2 hr, and phosphorylation of p38 in GF, as well as expression of IκB-α and phosphorylation of p65 NFκB and activation of representative serine/threonine kinase in GEC were examined.

[4] = test system: lymphocytes obtained from these rats; assay: Lymphoblast formation in cultured lymphocytes of injected rats; assay type: cell-based, rat
Procedure: as §1

[5] = test system: MMP-2, MMP-3, MCP-1, IL-6, IL-8 in gingiva fibroblasts; assay: Cytokine and chemokine expression in stimulated gingiva fibroblasts, Western blot; assay type: cell-based; details: stimulation 2-24 hr
Procedure: as §2

[6] = test system: peripheral blood mononuclear leukocytes; assay: FACS analysis of RANKL and CD3 in peripheral blood mononuclear leukocytes of injected rats; assay type: cell-based, rat; details: in vitro stimulation of cells of rats injected with FL6 or K6F
Procedure: as §1

RANKL in lymphocytes = assay: RANKL expression in stimulated lymphocytes, Western blot with anti RANKL antibody; assay type: cell-based, human
Procedure: Blood samples were collected from progressive (untreated) periodontitis patients, periodontitis patients during treatment and periodontitis patients after treatment to obtain lymphocytes, stimulated with full-length human Keratin 6 (K6; 2 or 4 μg/ml) or peptide 1 (K6F; 60 or 30 μg/ml), expression of RANKL in lymphocytes was examined by Western blot analysis using anti RANKL antibody. […] Fluorescent staining was performed to examine induction of lymphoblast formation by the stimulation with full-length human Keratin 6 or peptide 1. As a result, it was correlated well with the expression of RANKL mRNA (FIG. 8C).

[7] = test system: Peripheral blood monocytes derived from severe periodontitis patients; assay: Immunostaining of peripheral blood monocytes with anti-RANKL and anti-CD3 antibody; assay type: cell-based, human; details: stimulation of cells from severe periodontitis patients
Description: Peripheral blood monocytes derived from severe periodontitis patients were stimulated with full-length human Keratin 6 (FL) or peptide 1 (K6F), and immunostained with anti-RANKL antibody and anti-CD3 antibody.

[8] = test system: T cells obtained from peripheral blood of the periodontal disease patients; assay: Differentiation of stimulated T cells into polynuclear giant cells, tissue staining; assay type: cell-based, human; details: stimulation
Description: T cells obtained from peripheral blood of the periodontal disease patients and healthy subject were stimulated with full-length human Keratin 6 (FL) or peptide 1 (K6F), and differentiation into polynuclear giant cells was observed by tissue staining.

[9] = test system: p38 MAPK, IκB-α, p65 NFκB in gingiva fibroblast (GF); assay: p38 MAPK, IκB-α and p65 NFκB signalling in stimulated gingiva fibroblast; assay type: cell-based; details: stimulation 15 min-2 hr
Procedure: Gingiva fibroblasts were stimulated with peptide 1 (K6F), recombinant Keratin 6 (RK6, Rec-K6) or scramble peptide (Sc) for 2-24 hr, and the expression levels of MMP-2, MMP-3, MCP-1, IL-6, IL-8 were measured by Western blot analysis. […] Then, gingiva fibroblast (GF) and gingival epithelial cell (GEC) were stimulated with peptide 1 (K6F) or scramble peptide (Sc), respectively, for 15 min-2 hr, and phosphorylation of p38 in GF, […] serine/threonine kinase in GEC were examined.

[10] = test system: Lymphocytes obtained from periodontitis patients and healthy subjects (T cell proliferation); assay: Drug-induced lymphocyte stimulation test (DLST); assay type: cell-based, human; details: for T cell proliferation induction potency in DLST: periodontitis patients as compared to healthy subjects
Description: Lymphocytes obtained from periodontitis patients and healthy subjects were subjected to a drug-induced lymphocyte stimulation test (DLST) using full-length human Keratin 6 and peptide 1 (fragment thereof) (periodontitis patients: N=22, healthy subjects: N=5).

[11] = in vitro stimulation of lymphocytes of injected rats
[12] = lymphocytes of rats injected with the substance
[13] = lymphocytes of healthy subject (Non-PD) and periodontitis patients after treatment (Maintenance Phase)
[14] = lymphocytes of untreated periodontitis patients and patients during treatment, K6 2 or 4 μg/ml, K6F 60 or 30 μg/ml

Row | Molecule | tumentia of lower jaw lymph node (Lt) (rats) | alveolar bone destruction (rats) | binding level to cells, percentage higher than that of the control cell (gingiva fibroblast (GF)) | bone resorption pit formation [1] | expression of RANKL mRNA [2] | activation of representative serine/threonine kinase [3] | Lymphoblast formation [4, 11] | Lymphoblast formation [4, 12] | expression levels of MMP-2, MMP-3, MCP-1, IL-6, IL-8 [5] | expression of RANKL and CD3 [6] | expression of RANKL in lymphocytes (RANKL in lymphocytes; [13]) | expression of RANKL in lymphocytes (RANKL in lymphocytes; [14]) | CD positive cells (T cells) that express RANKL [7] | differentiation into polynuclear giant cells [8] | phosphorylation (activation) of p38 MAPK ([9]; GF) | degradation of IκB and activation of p65 NFκB [9] | DLST positive samples (T cell proliferation induced) / samples tested ([10]; Healthy subject, N=5) | DLST positive samples (T cell proliferation induced) / samples tested ([10]; Periodontitis patients, N=22) | T cell proliferation induction potency in DLST [10]
1 | YEELQITAGRHGDDLRNTK (listed as Homo sapiens) [peptide 1] | tumentia of lower jaw lymph node | alveolar bone destruction was observed | far higher binding level | formation of a marked bone resorption pit | tended to increase | induced activation of ERK and Akt | further enhanced lymphoblast formation | Lymphoblast formation was observed | remarkably increased expression | enhanced expression of RANKL and CD3 | not expressed | increased expression of RANKL | remarkably increased | remarkable differentiation into polynuclear giant cells | induced activation of p38 MAPK | did not induce degradation of IκB and activation of p65 NFκB | 0/5 | 3/22 | remarkable T cell proliferation induction potency
2 | Full-length human Keratin 6: full-length human Keratin 6 protein, parental protein of peptide 1 (protein, UniProt P02538 1-564, looked up, full-length) MASTSTTIRSHSSSRRGFSANSARLPGVSRSGFSSVSVSRSRGSGGLGGACGGAGFGSRSLYGLGGSKRISIGGGSCAISGGYGSRAGGSYGFGGAGSGFGFGGGAGIGFGLGGGAGLAGGFGGPGFPVCPPGGIQEVTVNQSLLTPLNLQIDPTIQRVRAEEREQIKTLNNKFASFIDKVRFLEQQNKVLETKWTLLQEQGTKTVRQNLEPLFEQYINNLRRQLDSIVGERGRLDSELRGMQDLVEDFKNKYEDEINKRTAAENEFVTLKKDVDAAYMNKVELQAKADTLTDEINFLRALYDAELSQMQTHISDTSVVLSMDNNRNLDLDSIIAEVKAQYEEIAQRSRAEAESWYQTKYEELQVTAGRHGDDLRNTKQEIAEINRMIQRLRSEIDHVKKQCANLQAAIADAEQRGEMALKDAKNKLEGLEDALQKAKQDLARLLKEYQELMNVKLALDVEIATYRKLLEGEECRLNGEGVGQVNISVVQSTVSSGYGGASGVGSGLGLGGGSSYSYGSGLGVGGGFSSSSGRAIGGGLSSVGGGSSTIKYTTTSSSSRKSYKH | tumentia of lower jaw lymph node | alveolar bone destruction was observed |  | formation of a marked bone resorption pit | tended to increase |  | further enhanced lymphoblast formation | Lymphoblast formation was observed |  |  | not expressed | increased expression of RANKL | remarkably increased | remarkable differentiation into polynuclear giant cells |  |  | 2/5 | 13/22 | remarkable T cell proliferation induction potency
